Measurements published in PubChem BioAssay AID256 (DTP/NCI, 2004).
Where “and” joins values, the source holds several entries; their conditions need not be identical. Identical values can stand only once. Toxic doses and inconclusive results are not listed. How the source made its calls: active means survival T/C of 150% or more; inactive means T/C below 125% in these data. Non-standard residues stand in square brackets, D forms with d. Residues, ends and D or L forms follow the SMILES beside them. ξ: configuration not given here. *: point of attachment. ξF = NC(Cc1ccccc1)C(=O)O; Cbz = O=C(OCc1ccccc1)*

Tested on: CD2F1 mice, L1210 leukemia ip, survival T/C
Test: NCI In Vivo Anticancer Drug Screen. Data for tumor model L1210 Leukemia (intraperitoneal) in CD2F1 (CDF1) mice
Conditions: endpoint: mean survival time, higher = longer survival
In short: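 Read-out first: treated-group measurement over vehicle-control measurement, expressed as a ratio. Animals bore a transplanted tumor line and were dosed with compound or vehicle.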

[1] = dose: 100.0 mg/kg/injection, schedule: Q04DX003 (ip), vehicle: Klucel (hydroxypropylcellulose) (HPC)
[2] = dose: 200.0 mg/kg/injection, schedule: Q04DX003 (ip), vehicle: Klucel (hydroxypropylcellulose) (HPC)
[3] = dose: 400.0 mg/kg/injection, schedule: Q04DX003 (ip), vehicle: Klucel (hydroxypropylcellulose) (HPC)
[4] = dose: 100.0 mg/kg/injection, schedule: Q01DX009 (ip), vehicle: saline with Tween-80
[5] = dose: 200.0 mg/kg/injection, schedule: Q01DX009 (ip), vehicle: saline with Tween-80
[6] = dose: 100.0 mg/kg/injection, schedule: Q04DX003 (ip), vehicle: saline
[7] = dose: 200.0 mg/kg/injection, schedule: Q04DX003 (ip), vehicle: saline
[8] = dose: 400.0 mg/kg/injection, schedule: Q04DX003 (ip), vehicle: saline
[9] = dose: 50.0 mg/kg/injection, schedule: Q01DX009 (ip), vehicle: saline with Tween-80
[10] = dose: 100.0 mg/kg/injection, schedule: Q04DX003 (ip), vehicle: saline with Tween-80
[11] = dose: 200.0 mg/kg/injection, schedule: Q04DX003 (ip), vehicle: saline with Tween-80
[12] = dose: 400.0 mg/kg/injection, schedule: Q01DX009 (ip), vehicle: saline with Tween-80
[13] = dose: 400.0 mg/kg/injection, schedule: Q04DX003 (ip), vehicle: saline with Tween-80
[14] = dose: 100.0 mg/kg/injection, schedule: Q04DX003 (ip), vehicle: other
[15] = dose: 100.0 mg/kg/injection, schedule: Q01DX001 (ip), vehicle: saline
[16] = dose: 200.0 mg/kg/injection, schedule: Q01DX001 (ip), vehicle: saline
[17] = dose: 50.0 mg/kg/injection, schedule: Q04DX002 (ip), vehicle: saline with Tween-80
[18] = dose: 100.0 mg/kg/injection, schedule: Q04DX002 (ip), vehicle: saline with Tween-80

Measured: T/C

C(=N\Nc1ccccc1)/c1ccccc1
inactive: dose: 100.0 mg/kg/injection, schedule: Q01DX001 (ip), vehicle: saline with Tween-80 107 % of control | [1] 106 % of control | dose: 200.0 mg/kg/injection, schedule: Q01DX001 (ip), vehicle: saline with Tween-80 94 % of control | [2] 98 % of control | dose: 400.0 mg/kg/injection, schedule: Q01DX001 (ip), vehicle: saline with Tween-80 100 % of control | [3] 96 % of control

O=C(CCl)N1CCc2ccccc21
inactive: [1] 98 % of control | [2] 103 % of control | [3] 97 % of control

Cc1ccc(Sc2cccc3c2C(=O)c2c(Sc4ccc(C)cc4)cccc2C3=O)cc1
inactive: [4] 93 % of control | [5] 86 % of control

COCCOCCOCCOCCOCCOCCOCCOC(=O)Nc1ccc(C)c(NC(=O)OCCOCCOCCOCCOCCOCCOCCOC)c1
inactive: dose: 100.0 mg/kg/injection, schedule: Q01DX009 (ip), vehicle: saline sonified 96 % of control | [6] 96 % of control | dose: 200.0 mg/kg/injection, schedule: Q01DX009 (ip), vehicle: saline sonified 96 % of control | [7] 100 % of control | dose: 400.0 mg/kg/injection, schedule: Q01DX009 (ip), vehicle: saline sonified 93 % of control | [8] 100 % of control

F[Si](c1ccc(Br)cc1)(c1ccc(Br)cc1)c1ccc(Br)cc1
inactive: [9] 102 % of control | [4] 94 % of control | [10] 95 % of control | [11] 93 % of control

OC(Cc1ccccn1)C(Cl)(Cl)Cl (centres undefined)
inactive: dose: 50.0 mg/kg/injection, schedule: Q04DX002 (ip), vehicle: saline 97 % of control | [4] 102 % of control | dose: 100.0 mg/kg/injection, schedule: Q04DX002 (ip), vehicle: saline 114 % of control | [10] 95 % of control | [5] 112 % of control | dose: 200.0 mg/kg/injection, schedule: Q04DX002 (ip), vehicle: saline 94 % of control | [11] 111 % of control | [12] 98 % of control | [13] 103 % of control

NC(=O)C(Cc1ccccc1)NC(=O)CNC(=O)CNC(=O)OCc1ccccc1 (stereo not drawn) (Cbz-Gly-Gly-[ξF]-NH2)
inactive: [10] 97 % of control | [11] 96 % of control | [13] 99 % of control

CCCCCCCCCCCCCCCC(=O)NCCOC(C)=O
inactive: [9] 89 % of control | [4] 92 % of control | [10] 92 % of control | [5] 93 % of control | [11] 95 % of control | [13] 97 % of control

O=[N+]([O-])c1ccc2nc3ccccc3cc2c1
inactive: [10] 92 % of control | [11] 92 % of control | [13] 91 % of control

NC(=O)NNc1ccc([N+](=O)[O-])cc1[N+](=O)[O-]
inactive: dose: 25.0 mg/kg/injection, schedule: Q04DX003 (ip), vehicle: saline with Tween-80 93 % of control | dose: 50.0 mg/kg/injection, schedule: Q04DX003 (ip), vehicle: saline with Tween-80 89 % of control | [10] 97 % of control

CCC(CC)C(O)CC(O)CC(C)C (centres undefined)
inactive: dose: 25.0 mg/kg/injection, schedule: Q01DX009 (ip), vehicle: other 97 % of control | dose: 50.0 mg/kg/injection, schedule: Q01DX009 (ip), vehicle: other 103 % of control | dose: 100.0 mg/kg/injection, schedule: Q01DX009 (ip), vehicle: other 97 % of control | [14] 86 % of control | dose: 400.0 mg/kg/injection, schedule: Q04DX003 (ip), vehicle: other 94 % of control

ClCCCN1CCN(CCCCl)CC1
inactive: dose: 6.25 mg/kg/injection, schedule: Q01DX009 (ip), vehicle: distilled water + alcohol 96 % of control | dose: 12.5 mg/kg/injection, schedule: Q01DX009 (ip), vehicle: distilled water + alcohol 95 % of control | dose: 25.0 mg/kg/injection, schedule: Q01DX009 (ip), vehicle: distilled water + alcohol 102 % of control | dose: 50.0 mg/kg/injection, schedule: Q01DX009 (ip), vehicle: distilled water + alcohol 103 % of control | dose: 100.0 mg/kg/injection, schedule: Q01DX009 (ip), vehicle: distilled water + alcohol 108 % of control

O=C(O)c1cccs1
inactive: [14] 100 % of control | dose: 200.0 mg/kg/injection, schedule: Q04DX003 (ip), vehicle: other 102 % of control

N=C(c1ccccc1)c1ccccc1
inactive: [4] 100 % of control | [5] 102 % of control | [12] 102 % of control

CCOC(=O)CCC(NC(=O)N(CCCl)CCCl)C(=O)OCC (centres undefined)
inactive: dose: 25.0 mg/kg/injection, schedule: Q01DX001 (ip), vehicle: carboxymethylcellulose (CMC) 97 % of control | dose: 50.0 mg/kg/injection, schedule: Q01DX001 (ip), vehicle: carboxymethylcellulose (CMC) 106 % of control | [15] 103 % of control | [16] 114 % of control | dose: 900.0 mg/kg/injection, schedule: Q01DX001 (ip), vehicle: carboxymethylcellulose (CMC) 102 % of control

N#CC1CC2C=CC1C2 (centres undefined)
inactive: dose: 5.0 mg/kg/injection, schedule: Q01DX009 (ip), vehicle: saline 98 % of control | dose: 5.0 mg/kg/injection, schedule: Q04DX003 (ip), vehicle: saline 95 % of control | dose: 10.0 mg/kg/injection, schedule: Q01DX009 (ip), vehicle: saline 98 % of control | dose: 10.0 mg/kg/injection, schedule: Q04DX003 (ip), vehicle: saline 97 % of control | dose: 20.0 mg/kg/injection, schedule: Q01DX009 (ip), vehicle: saline 87 % of control | dose: 20.0 mg/kg/injection, schedule: Q04DX003 (ip), vehicle: saline 100 % of control

O=C(CNCc1ccccc1)c1ccccc1
inactive: [10] 94 % of control | [11] 96 % of control | [13] 93 % of control

O=C(O)C1C2CC3OC(=O)C1C3C2 (centres undefined)
inactive: [6] 94 % of control | [7] 93 % of control | [8] 96 % of control

O=[N+]([O-])c1ccc2c(c1)S(=O)c1cc([N+](=O)[O-])c(Br)cc1-2 (centres undefined) (tested in a mixture with another compound)
inactive: [17] 108 % of control | [18] 108 % of control | dose: 200.0 mg/kg/injection, schedule: Q04DX002 (ip), vehicle: saline with Tween-80 102 % of control

Cc1nc2n3c(nc(C)c13)=CCC2
inactive: dose: 25.0 mg/kg/injection, schedule: Q01DX009 (ip), vehicle: saline with Tween-80 96 % of control | [9] 98 % of control | [4] 93 % of control | [10] 97 % of control

CCOC(=O)CN1C(=O)CN=C(c2ccccn2)c2cc(Cl)ccc21
inactive: [10] 102 % of control | [11] 89 % of control | [13] 89 % of control

NNc1ccccc1-c1nc2ccccc2[nH]1
inactive: dose: 75.0 mg/kg/injection, schedule: Q01DX001 (ip), vehicle: saline 96 % of control | dose: 150.0 mg/kg/injection, schedule: Q01DX001 (ip), vehicle: saline 96 % of control | dose: 300.0 mg/kg/injection, schedule: Q01DX001 (ip), vehicle: saline 108 % of control

O=C(O)c1c2c(nc3ccccc13)Cc1ccccc1-2
inactive: dose: 12.5 mg/kg/injection, schedule: Q01DX009 (ip), vehicle: water 104 % of control and 109 % of control | dose: 25.0 mg/kg/injection, schedule: Q01DX009 (ip), vehicle: water 103 % of control and 108 % of control | [9] 96 % of control | dose: 50.0 mg/kg/injection, schedule: Q01DX009 (ip), vehicle: water 105 % of control and 110 % of control | [4] 104 % of control | dose: 100.0 mg/kg/injection, schedule: Q01DX009 (ip), vehicle: water 100 % of control and 112 % of control | [10] 98 % of control | [5] 101 % of control | dose: 200.0 mg/kg/injection, schedule: Q01DX009 (ip), vehicle: water 114 % of control | [11] 104 % of control

Cc1nc(-c2ccccc2)c(Cc2c(O)ccc3ccccc23)c(=O)[nH]1
inactive: [15] 97 % of control | [16] 100 % of control | dose: 400.0 mg/kg/injection, schedule: Q01DX001 (ip), vehicle: saline 100 % of control

NNC(=O)COc1ccccc1
inactive: dose: 25.0 mg/kg/injection, schedule: Q04DX003 (ip), vehicle: saline 101 % of control | dose: 50.0 mg/kg/injection, schedule: Q04DX003 (ip), vehicle: saline 101 % of control | [6] 103 % of control

CN(C)P1(=O)OCC(C(C)(C)C)CO1 (centres undefined)
inactive: dose: 25.0 mg/kg/injection, schedule: Q04DX002 (ip), vehicle: saline with Tween-80 101 % of control and 91 % of control | [17] 97 % of control and 94 % of control | [18] 86 % of control and 94 % of control and 100 % of control
